Columns and labels:
MV4-11 cells = assay: Inhibition of MV4-11 cell proliferation (Cell-Titer Glo); type: cell-based; settings: Homo sapiens, 72 hours of growth, read-out: GI50 range
Protocol: Inhibition of MV4-11 Cell Proliferation.
MV4-11 cells (5000 cells in 50 μl volumes) in growth medium containing 10% FBS and 1% Pen/Strep were plated and grown overnight in 96 well plates and treated the next day with 3-fold dilutions of test compounds or with DMSO vehicle. After 72 hours of growth, 30 ul of Cell-Titer Glo reagent (Promega) was added to the wells and the plates incubated for 30 minutes. Luminescence was measured on a Spectramax M5 plate reader and GI50 values were calculated for each test compound.

Myc mRNA = assay: Inhibition of Myc expression (Myc mRNA) in MV4-11 cells; type: cell-based; settings: Homo sapiens, 4 hours of treatment, read-out: EC50 range, Myc mRNA normalized to GAPDH mRNA
Source text: Inhibition of Myc Expression.

Structure (SMILES) | GI50 (MV4-11 cells) | EC50 (Myc mRNA)
CCNC(=O)C[C@@H]1N=C(c2ccc(Cl)cc2)c2cc(OCCNC(=O)C[C@@H]3N=C(c4ccc(Cl)cc4)c4cc(OC)ccc4-n4c(C)nnc43)ccc2-n2c(C)nnc21 [BRD-B-01, N-(2-(((S)-6-(4-chlorophenyl)-4-(2-(ethylamino)-2-oxoethyl)-1-methyl-4H-benzo[f][1,2,4]triazolo[4,3-a][1,4]diazepin-8-yl)oxy)ethyl)-2-((S)-6-(4-chlorophenyl)-8-methoxy-1-methyl-4H-benzo[f][1,2,4]triazolo[4,3-a][1,4]diazepin-4-yl)acetamide] | 0.1 to 30 µM | –
CCNC(=O)C[C@@H]1N=C(c2ccc(Cl)cc2)c2cc(OCCOCCOCCNC(=O)C[C@@H]3N=C(c4ccc(Cl)cc4)c4cc(OC)ccc4-n4c(C)nnc43)ccc2-n2c(C)nnc21 [BRD-B-04, N-(2-(2-(2-(((S)-6-(4-chlorophenyl)-4-(2-(ethylamino)-2-oxoethyl)-1-methyl-4H-benzo[f][1,2,4]triazolo[4,3-a][1,4]diazepin-8-yl)oxy)ethoxy)ethoxy)ethyl)-2-((S)-6-(4-chlorophenyl)-8-methoxy-1-methyl-4H-benzo[f][1,2,4]triazolo[4,3-a][1,4]diazepin-4-yl)acetamide] | 0.0001 to 0.03 µM | 0.0001 to 0.03 µM
CCNC(=O)C[C@@H]1N=C(c2ccc(Cl)cc2)c2cc(OCCOCCOCCOCCNC(=O)C[C@@H]3N=C(c4ccc(Cl)cc4)c4cc(OC)ccc4-n4c(C)nnc43)ccc2-n2c(C)nnc21 [BRD-B-05, N-(2-(2-(2-(2-(((S)-6-(4-chlorophenyl)-4-(2-(ethylamino)-2-oxoethyl)-1-methyl-4H-benzo[f][1,2,4]triazolo[4,3-a][1,4]diazepin-8-yl)oxy)ethoxy)ethoxy)ethoxy)ethyl)-2-((S)-6-(4-chlorophenyl)-8-methoxy-1-methyl-4H-benzo[f][1,2,4]triazolo[4,3-a][1,4]diazepin-4-yl)acetamide] | 0.0001 to 0.03 µM | 0.03 to 0.1 µM
COc1ccc2c(c1)C(c1ccc(Cl)cc1)=N[C@@H](CC(=O)NCCNC(=O)NCCNC(=O)C[C@@H]1N=C(c3ccc(Cl)cc3)c3cc(OC)ccc3-n3c(C)nnc31)c1nnc(C)n1-2 [BRD-B-06, (S)—N,N′-((carbonylbis(azanediyl))bis(ethane-2,1-diyl))bis(2-((S)-6-(4-chlorophenyl)-8-methoxy-1-methyl-4H-benzo[f][1,2,4]triazolo[4,3-a][1,4]diazepin-4-yl)acetamide)] | 0.1 to 30 µM | 0.1 to 30 µM
COc1ccc2c(c1)C(c1ccc(Cl)cc1)=N[C@@H](CC(=O)NCc1cccc(C3CCN(C(=O)C[C@@H]4N=C(c5ccc(Cl)cc5)c5cc(OC)ccc5-n5c(C)nnc54)CC3)c1)c1nnc(C)n1-2 [BRD-B-10, 2-((S)-6-(4-chlorophenyl)-8-methoxy-1-methyl-4H-benzo[f][1,2,4]triazolo[4,3-a][1,4]diazepin-4-yl)-N-(3-(1-(2-((S)-6-(4-chlorophenyl)-8-methoxy-1-methyl-4H-benzo[f][1,2,4]triazolo[4,3-a][1,4]diazepin-4-yl)acetyl)piperidin-4-yl)benzyl)acetamide] | 0.1 to 30 µM | –
CCNC(=O)C[C@@H]1N=C(c2ccc(Cl)cc2)c2cc(OCCOCCOCCOCCOCCOCCOCCOCCOCCOCCNC(=O)C[C@@H]3N=C(c4ccc(Cl)cc4)c4cc(OC)ccc4-n4c(C)nnc43)ccc2-n2c(C)nnc21 [BRD-B-21, N-(29-(((4S)-6-(4-chlorophenyl)-4-(2-(ethylamino)-2-oxoethyl)-1-methyl-4H-benzo[f][1,2,4]triazolo[4,3-a][1,4]diazepin-8-yl)oxy)-3,6,9,12,15,18,21,24,27-nonaoxanonacosyl)-2-((4S)-6-(4-chlorophenyl)-8-methoxy-1-methyl-4H-benzo[f][1,2,4]triazolo[4,3-a][1,4]diazepin-4-yl)acetamide] | – | 0.1 to 30 µM
Cc1ccc(-c2c(C)noc2C)cc1S(=O)(=O)NCCOCCOCCNS(=O)(=O)c1cc(-c2c(C)noc2C)ccc1C [BRD-B-76, N,N′-((ethane-1,2-diylbis(oxy))bis(ethane-2,1-diyl))bis(5-(3,5-dimethylisoxazol-4-yl)-2-methylbenzenesulfonamide)] | – | 0.1 to 30 µM

— patent publication US20140243322A1, “BIVALENT BROMODOMAIN LIGANDS, AND METHODS OF USING SAME” (Coferon, Inc., priority 2011, published 2014)
